What was measured:
Format in all cases: physicochemical
[1] = Thermogravimetric analysis (TGA); conditions: heated at 10° C./min under nitrogen
Description: TGA: Samples were analyzed using a TA Instruments TGA Discovery 550. The sample were placed in a tared aluminum tray and automatically weighed, and then the samples were brought to the specified temperatures at a rate of 10° C./min under the protection of nitrogen. In the present invention, the TGA graphs of the above three samples are illustrated in the form of overlay, as shown in FIG. 5.

[2] = Dynamic vapor sorption (DVS); conditions: for DVS weight gain at an RH of 80%: RH 80%, 25±1° C.; for Mass change (%) - ref, Delay: desorption minus sorption
Description: DVS: Samples were analyzed using an Intrinsic DVS ([…] UK). The amount of test sample was about 20-30 mg. The temperature of the test chamber was controlled between 25±1° C., the relative humidity was increased from 0% to 90% and then decreased to 0% at a rate of 10%/h, and the quality data was recorded every 20 s.

[3] = Solubility test in water; conditions: purified water, room temperature, stirred 2 hours
Description: The excess crystals were dissolved in an amount of purified water in a 4 ml vial at room temperature. The mass of an empty watch glass was recorded as m1.
The suspension was stirred for 2 hours and then filtered through a […] into an empty watch glass, the mass m2 at this point was recorded for this watch glass, and the remaining solid was used for XRPD analysis.
The watch glass containing the filtrate was dried in an oven at 40° C. After drying, the mass m3 was recorded and the solubility data of the substrate could be calculated. The masses of the watch glass as well as the amounts of solid and solution are listed in Table 6, and the experimental results are shown in Table 7 and FIG. 12.

[4] = Solubility in buffer of crystalline form I
Source text: The solubility of crystalline form I of the present invention was investigated at room temperature in buffers at pH 1.2, 4.5 and 6.8. The procedure was consistent with that of the solubility test in water. The masses of the watch glass as well as the amounts of solid and solution are listed in Table 8, and the experimental results are shown in Table 9.

[5] = Stability test (crystalline form by XRPD); conditions: one week
Description: 10 mg of the solid was placed into a 2 ml glass vial and the vial was transferred to a stability chamber. The experimental conditions were 25° C./92.5% RH, 40° C./75% RH, 60° C., and light, respectively.

| TGA weight loss (wt %) [1] | DVS weight gain at an RH of 80% [2] [%] | Solubility in water [3] [mg/g] | Mass change (%) - ref, Desorption ([2]; Cycle 1, objective RH 0.0%) [%] | Mass change (%) - ref, Sorption ([2]; Cycle 1, objective RH 0.0%) [%] | Mass change (%) - ref, Desorption ([2]; Cycle 1, objective RH 10.0%) [%] | Mass change (%) - ref, Sorption ([2]; Cycle 1, objective RH 10.0%) [%] | Mass change (%) - ref, Delay ([2]; Cycle 1, objective RH 10.0%) [%] | Mass change (%) - ref, Desorption ([2]; Cycle 1, objective RH 20.0%) [%] | Mass change (%) - ref, Sorption ([2]; Cycle 1, objective RH 20.0%) [%] | Mass change (%) - ref, Delay ([2]; Cycle 1, objective RH 20.0%) [%] | Mass change (%) - ref, Desorption ([2]; Cycle 1, objective RH 30.0%) [%] | Mass change (%) - ref, Sorption ([2]; Cycle 1, objective RH 30.0%) [%] | Mass change (%) - ref, Delay ([2]; Cycle 1, objective RH 30.0%) [%] | Mass change (%) - ref, Desorption ([2]; Cycle 1, objective RH 40.0%) [%] | Mass change (%) - ref, Sorption ([2]; Cycle 1, objective RH 40.0%) [%] | Mass change (%) - ref, Delay ([2]; Cycle 1, objective RH 40.0%) [%] | Mass change (%) - ref, Desorption ([2]; Cycle 1, objective RH 50.0%) [%] | Mass change (%) - ref, Sorption ([2]; Cycle 1, objective RH 50.0%) [%] | Mass change (%) - ref, Delay ([2]; Cycle 1, objective RH 50.0%) [%] | SMILES | further results |
| --- | --- | --- | --- | --- | --- | --- | --- | --- | --- | --- | --- | --- | --- | --- | --- | --- | --- | --- | --- | --- | --- |
| 0.966 wt % | 2.440 | 8.12 |  |  |  |  |  |  |  |  |  |  |  |  |  |  |  |  |  | CCCC(=O)N[C@H]1C(O)O[C@H](COC(=O)CCC)[C@@H](OC(=O)CCC)[C@@H]1O (stereo partly drawn) [API, 2-N-4,6-di-O-tributyryl-D-glucosamine] |  |
| 0.344 wt % | 1.037 | 9.02 | −0.022 | 0.001 | 0.082 | 0.092 | −0.010 | 0.160 | 0.175 | −0.015 | 0.270 | 0.276 | −0.006 | 0.409 | 0.417 | −0.007 | 0.498 | 0.502 | −0.003 | CCCC(=O)N[C@H]1C(O)O[C@H](COC(=O)CCC)[C@@H](OC(=O)CCC)[C@@H]1O (stereo partly drawn) [Crystalline Form I, 2-N-4,6-di-O-tributyryl-D-glucosamine] | Mass change (%) - ref, Desorption ([2]; Cycle 1, objective RH 60.0%): 0.627%; Mass change (%) - ref, Sorption ([2]; Cycle 1, objective RH 60.0%): 0.626%; Mass change (%) - ref, Delay ([2]; Cycle 1, objective RH 60.0%): 0.001%; Mass change (%) - ref, Desorption ([2]; Cycle 1, objective RH 70.0%): 0.789%; Mass change (%) - ref, Sorption ([2]; Cycle 1, objective RH 70.0%): 0.800%; Mass change (%) - ref, Delay ([2]; Cycle 1, objective RH 70.0%): −0.011%; Mass change (%) - ref, Desorption ([2]; Cycle 1, objective RH 80.0%): 1.031%; Mass change (%) - ref, Sorption ([2]; Cycle 1, objective RH 80.0%): 1.037%; Mass change (%) - ref, Delay ([2]; Cycle 1, objective RH 80.0%): −0.006%; Mass change (%) - ref, Desorption ([2]; Cycle 1, objective RH 90.0%): 1.662%; Mass change (%) - ref, Sorption ([2]; Cycle 1, objective RH 90.0%): 1.662%; Solubility in water ([3]; listed as crystalline form I): 9.08 mg/g; Solubility in buffer ([4]; buffer pH 1.2, room temperature): 4.08 mg/g; Solubility in buffer ([4]; buffer pH 4.5, room temperature): 6.58 mg/g; Solubility in buffer ([4]; buffer pH 6.8, room temperature): 10.02 mg/g; Whether the crystalline form is changed ([5]; 25° C., 92.5% RH): No; Whether the crystalline form is changed ([5]; 40° C., 75% RH): No; Whether the crystalline form is changed ([5]; 60° C.): No; Whether the crystalline form is changed ([5]; Light): No |
| None | 0.869 | 9.08 | 0.023 | 0.000 | 0.552 | 0.086 | 0.466 | 0.659 | 0.165 | 0.494 | 0.777 | 0.257 | 0.520 | 0.913 | 0.324 | 0.590 | 0.968 | 0.368 | 0.600 | CCCC(=O)N[C@H]1C(O)O[C@H](COC(=O)CCC)[C@@H](OC(=O)CCC)[C@@H]1O (stereo partly drawn) [Crystalline Form II, 2-N-4,6-di-O-tributyryl-D-glucosamine] | Mass change (%) - ref, Desorption ([2]; Cycle 1, objective RH 60.0%): 1.080%; Mass change (%) - ref, Sorption ([2]; Cycle 1, objective RH 60.0%): 0.457%; Mass change (%) - ref, Delay ([2]; Cycle 1, objective RH 60.0%): 0.623%; Solubility in water ([3]; listed as crystalline form II): 9.02 mg/g |

Source: patent US20240279265A1, “CRYSTAL FORMS OF GLUCOSAMINE DERIVATIVE, AND PREPARATION METHOD THEREFOR AND USE THEREOF” (RISEN (SUZHOU) PHARMA TECH CO., LTD., priority 2021, published 2024)
